Measurements: US20240091210A1, “USE OF 5-[[4-[2-[5-ACETYLPYRIDIN-2-YL]ETHOXY]BENZYL]-1,3-THIAZOLIDINE-2,4-DIONE AND ITS SALTS” (Minoryx Therapeutics S.L., priority 2018, published 2024)

Tests used:
[1] = Plasma pharmacokinetics in dogs after single oral 3 mg/kg M3 or MIN-102; assay type: in vivo, male Beagle dogs
Protocol: The plasma pharmacokinetics of 5-[[4-[2-[5-acetylpyridin-2-yl]ethoxy]phenyl]methyl]-1,3-thiazolidine-2,4-dione (M-III; M3) and 5-[[4-[2-[5-(1-hydroxyethyl)pyridin-2-yl]ethoxy]phenyl]methyl]-1,3-thiazolidine-2,4-dione (M-IV; M4) were determined in male Beagle dogs following a single oral (3 mg/kg) dose administration of either M3 or MIN-102.
Six animals were dosed orally with a suspension formulation of either M-III or MIN-102 in 0.1% Tween 80 and 99.9% CMC (aqueous carboxymethylcellulose 0.5% w/v solution in RO water) at 3 mg/kg. Blood samples (0.5 ml) were collected from the saphenous or cephalic or jugular veins of dogs at predose, 0.5, 1, 2, 4, 6 and 24 hr. Samples were collected into labeled micro-tubes, containing K2EDTA solution (20% K2EDTA solution) as an anticoagulant. Plasma was immediately harvested from the blood by centrifugation at 4000 rpm for 10 min and stored below −70° C. until bioanalysis.
Concentrations of M3 and M-IV in dog plasma samples were determined by fit-for-purpose LC-MS/MS method. Non-Compartmental-Analysis module in Phoenix WinNonlin® (Version 6.3) was used to assess the pharmacokinetic parameters. Peak plasma concentrations (Cmax) and time for the peak plasma concentrations (Tmax) were the […] observed values. The areas under the concentration time curve (AUClast and AUCinf) were calculated by linear trapezoidal rule.

[2] = Plasma pharmacokinetics in mice after single oral 4.5 mg/kg M-III or MIN-102; assay type: in vivo, male C57BL/6 mice
Protocol: The plasma pharmacokinetics of 5-[[4-[2-[5-acetylpyridin-2-yl]ethoxy]phenyl]methyl]-1,3-thiazolidine-2,4-dione (M-III) and 5-[[4-[2-[5-(1-hydroxyethyl)pyridin-2-yl]ethoxy]phenyl]methyl]-1,3-thiazolidine-2,4-dione (M-IV) were determined in male C57BL/6 mice following a single oral (4.5 mg/kg) dose of either M-III or MIN-102 (5-[[4-[2-[5-(1-hydroxyethyl)pyridin-2-yl]ethoxy]phenyl]methyl]-1,3-thiazolidine-2,4-dione hydrochloride).
Animals were administered orally with a suspension formulation of either M-III or MIN-102 in 0.1% Tween 80 and 99.9% NaCMC in water (0.5% w/v) at 4.5 mg/kg dose. The blood samples were collected from a set of three mice at each time point in labeled micro centrifuge tubes containing K2EDTA solution as anticoagulant at Pre-dose, 0.25, 0.5, 1, 2, 4, 8, 12 and 24 hr. Plasma samples were separated by centrifugation of whole blood and stored below −70±10° C. until bioanalysis. All samples were processed for analysis by protein precipitation using acetonitrile and analyzed with fit-for-purpose LC-MS/MS method (LLOQ=2.46 ng/mL for M-III and 2.49 ng/mL for M-IV). Pharmacokinetic parameters were calculated using the non-compartmental analysis tool of Phoenix WinNonlin® (Version 6.3).

[3] = Plasma pharmacokinetics in rats after single oral 10 mg/kg M-III or MIN-102; assay type: in vivo, male Sprague Dawley rats
Protocol: The plasma pharmacokinetics of 5-[[4-[2-[5-acetylpyridin-2-yl]ethoxy]phenyl]methyl]-1,3-thiazolidine-2,4-dione (M-III; M3) and 5-[[4-[2-[5-(1-hydroxyethyl)pyridin-2-yl]ethoxy]phenyl]methyl]-1,3-thiazolidine-2,4-dione (M-IV; M4) were determined in male Sprague Dawley following a single oral (10 mg/kg) dose administration of either M-III or MIN-102.
Six animals were dosed orally with a suspension formulation of either M-III or MIN-102 in 0.1% Tween 80 and 99.9% CMC (0.5% w/v solution in RO water) at 10 mg/kg.
The dosing volume administered was 10 mL/kg. Blood samples (approximately 60 μL) were collected from retro-orbital plexus of three rats at 0.08, 0.25, 0.5, 1, 2, 4, 8, 12 and 24 hr (IV) and at predose, 0.25, 0.5, 1, 2, 4, 8, 12 and 24 hr. Samples were collected into labeled micro-tubes, containing K2EDTA solution (20% K2EDTA solution) as an anticoagulant. Plasma was immediately harvested from the blood by centrifugation at 4000 rpm for 10 min at 4±2° C. and stored below −70° C. until bioanalysis.
Concentrations of M-III and M-IV in rat plasma samples were determined by fit-for-purpose LC-MS/MS method. Non-Compartmental-Analysis module in Phoenix WinNonlin® (Version 6.3) was used to assess the pharmacokinetic parameters. Peak plasma concentrations (Cax) and time for the peak plasma concentrations (Tmax) were the observed values. The areas under the concentration time curve (AUClast and AUCinf) were calculated by linear trapezoidal rule.

[4] = Plasma pharmacokinetics in mice after single oral 50 mg/kg M-III; assay type: in vivo; conditions: male C57BL/6 mice
Protocol: To the plasma pharmacokinetics of 5-[[4-[2-[5-acetylpyridin-2-yl]ethoxy]phenyl]methyl]-1,3-thiazolidine-2,4-dione (M-III) and 5-[[4-[2-[5-(1-hydroxyethyl)pyridin-2-yl]ethoxy]phenyl]methyl]-1,3-thiazolidine-2,4-dione (M-IV) were determined in male C57BL/6 mice following a single oral (50 mg/kg) dose administration of M-III.
Nine animals were administered orally with suspension formulation of M-III in 0.1% Tween 80 and 99.9% NaCMC in water (0.5% w/v) at 50 mg/kg dose. The dosing volume administered was 10 mL/kg. The blood samples were collected from set of three mice at each time point in labeled micro centrifuge tube containing K2EDTA solution as anticoagulant at Pre-dose, 0.25, 0.5, 1, 2, 4, 8, 12 and 24 hr. Plasma samples were separated by centrifugation of whole blood and stored below −70±10° C. until bioanalysis. All samples were processed for analysis by protein precipitation using acetonitrile and analyzed with fit-for-purpose LC-MS/MS method (LLOQ=2.46 ng/mL for M-III and 2.49 ng/mL for M-IV). Pharmacokinetic parameters were calculated using the non-compartmental analysis tool of Phoenix WinNonlin® (Version 6.3).

[5] = as described in WO 2015/150476 A1; cited from earlier work
[6] = target: mitochondrial pyruvate carrier (MPC) (Homo sapiens (Human), UniProt O95563+Q9Y5U8); assay: BRET assay of MPC inhibitory activity in HEK cells; assay type: cell-based; conditions: HEK cells expressing MPC2-Rluc8 and MPC1-Venus; read-out: IC50 (MPC inhibition, BRET)
Protocol: The MPC is a heterodimer composed of two subunits, MPC1 and MPC2. MPC1 and MPC2 interact to form an active carrier. In the assay, MPC2 was fused to Rluc8 (Donor) and MPC1 to Venus (Acceptor). These chimeric proteins were stably expressed in HEK cells. BRET activity was measured following addition of coelenterazine in the culture medium. Coelenterazine enters into cells and in contact with luciferase Rluc8 emits light, which activates the emission of fluorescence by the Acceptor, provided the distance between the Donor and Acceptor is <[…]. If the distance between Donor and Acceptor is >[…], no BRET activity is measured. The level of BRET activity reflects a change in the conformation of the MPC: it is high when the carrier is in a closed conformation, low when the carrier is at rest and intermediary when it transports pyruvate. In this case, the BRET activity is the mean value between the BRET value when the carrier is at rest (Maximal distance between Donor and Acceptor) and the BRET value when it is closed (Shortest distance between Donor and Acceptor)
A wide range of concentrations of each of the tested compounds was used from 1 nM to 100 μM.

Chain of mitochondrial pyruvate carrier (MPC) (Q9Y5U8 whole entry, the tested form may be a part): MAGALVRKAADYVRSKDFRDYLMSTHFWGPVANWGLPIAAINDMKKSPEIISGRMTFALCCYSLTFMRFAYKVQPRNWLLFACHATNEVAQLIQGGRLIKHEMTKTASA
Chain of mitochondrial pyruvate carrier (MPC) (O95563 whole entry, the tested form may be a part): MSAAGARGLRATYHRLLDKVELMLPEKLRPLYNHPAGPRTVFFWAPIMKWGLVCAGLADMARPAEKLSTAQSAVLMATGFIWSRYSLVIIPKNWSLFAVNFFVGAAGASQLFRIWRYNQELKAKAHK

Structure (SMILES) | share of total exposure (AUC) ([1]; after single oral 3 mg/kg M3, male dogs) [%] | share of total exposure (AUC) ([1]; after single oral 3 mg/kg MIN-102, male dogs) | share of total exposure (AUC) ([2]; after single oral 4.5 mg/kg M-III, male mice) [%] | share of total exposure (AUC) ([2]; after single oral 4.5 mg/kg MIN-102, male mice) | share of total exposure (AUC) ([3]; after single oral 10 mg/kg M-III, male rats) [%] | share of total exposure (AUC) ([3]; after single oral 10 mg/kg MIN-102, male rats) | share of total exposure (AUC) [4] | blood-brain-barrier penetration [5] | IC50 [6] [nM]
CC(O)c1ccc(CCOc2ccc(CC3SC(=O)NC3=O)cc2)nc1 (stereo not shown) [M-IV, 5-[[4-[2-[5-(1-hydroxyethyl)pyridin-2-yl]ethoxy]phenyl]methyl]-1,3-thiazolidine-2,4-dione] | ~84 | about 92% | ~75 | about 62% | ~48 | about 58% | about 75% | penetrates the BBB | –
CCc1ccc(CCOc2ccc(CC3SC(=O)NC3=O)cc2)nc1 (stereo not shown) [Pioglitazone] | – | – | – | – | – | – | – | – | > 100000
CN(CCOc1ccc(C[C@@H]2SC(=O)NC2=O)cc1)c1ccccn1 [Rosiglitazone] | – | – | – | – | – | – | – | – | 2000
